Experimental findings from patent publication US20260327211A1, “MODULATORS OF A POTASSIUM CHANNEL AND OF TRPV1 CHANNEL AND USES THEREOF” (Bsense Bio Therapeutics Ltd., priority 2023, published 2026) are described below.

For data set [1], the system named is hTRPV1. The experiment in a line: hTRPV1 dual activity electrophysiology, CHO cells co-expressing hKv7.2/3 and hTRPV1. In kind it is cell-based. The settings on record: rat DRG and dual CHO.
Data set [2] has as its system rats. Nature of the data set: Rotarod assay (PSPP). The data set is classed as in vivo, rat. The settings on record: up to 300 mg/kg, male and female, 1-6 hours post-dose. An excerpt:
Animals: 50 male and 50 female Sprague Dawley rats from Envigo (Frederick, MD) were used in the study. Male animals were received at body weights between approximately 200-215 grams, and female animals between 175-205 grams. All animals were housed 3 per cage (15.55×13.63×8.39 inches) and acclimated to the vivarium for 6-9 days prior to testing. All cages contained BedO'Cob® bedding with Nylabones® for enrichment. All rats were examined, handled, and weighed prior to initiation of the study to ensure adequate health and suitability. During the study, 12/12 light/dark cycles were maintained. The room temperature was maintained between […] and 23° C. with relative humidity maintained around 50%. Chow (LabDiet 5001, LabDiet, St. Louis, MO, USA) and water were provided ad libitum except where specified below. Testing was performed during the animal's light cycle phase (between 6 am and […]). Body weights were recorded prior to baseline assessment. Latency to fall off the rotating rod was the primary measure of performance.
Training: Each trial on the rotarod was identical, a 5 second ramp from 0-17 RPM followed by a period of constant velocity at 17 RPM for up to 40 seconds, for a total trial time of […].
Animals ran three training trials on Day 1 with a 30 minutes interval between training trials. […] The outcome measured was latency to fall off the rotating rod. […]
(In the rotarod test animals must keep their balance on a rotating rod.)

A word on the IC50: it is the concentration that gives 50% inhibition. `O=C(Cc1nccc(-n2cc(Cl)c3cc(Cl)cc(Cl)c32)n1)NC1COCC1O` (centres unmarked) [Compound 760] had an IC50 in data set [1] of 0.1 to 0.23 nM.

As for `O=C(Cc1cncc(-n2cc(Cl)c3cc(Cl)cc(Cl)c32)c1)N[C@@H]1COC[C@H]1O` [Compound 661], the “Rotarod performance” value in data set [2] is “no effects on rotarod performance”.
